This is an account of results in patent US6358966B2, “Treatment of depression” (H. Lundbeck A/S, priority 1998, dated 2002).

Assay [1] deals with psychosis. Conditions: cited from earlier work.
Assay [2] has as its system sigma2. Conditions: cited from earlier work.
The test system of assay [3] is black/white exploration test in rats. Conditions: cited from earlier work.
The subject of assay [4] is chronic mild stress induced anhedonia in rats. In words: chronic mild stress induced anhedonia in rats (sucrose consumption). The class given is in vivo, Male Wistar rats. The text has this:
The model of chronic mild stress induced anhedonia in rats. […] This model is based on the observation that chronic mild stress causes a gradual decrease in sensitivity to rewards, for example consumption of sucrose, and that this decrease is dose-dependently reversed by chronic treatment with antidepressants. The method has previously been described and more information with respect to the test appears from Willner, Paul, Psycopharmacology, 1997, 134, 319-329. Male Wistar rats were trained to consume a 1% sucrose solution by nine 1-hour baseline tests in which sucrose was presented in the home cage following 14 h food and water deprivation. One group of animals was subjected to a chronic mild stress procedure for a period of 9 consecutive weeks. Each week of the stress regime consisted of two periods of food and water deprivation, two periods of 45-degree cage tilt, two periods of intermittent illumination (light on and off every 2 h), two periods of soiled cage (250 ml water saw dust bedding), two periods of paired housing, two periods of low stroboscobic illumination (150 flashes/min) and two periods of no stress. All stress periods were of 12-14 hours duration and followed continuously, day and night. Control animals were housed in separate rooms with food and water freely available except for a 14-h period preceding each sucrose test, and they had no contact with stressed animals. Stressed animals as well as control animals were divided into matched subgroups, and for subsequent five weeks they received daily intraperitoneal injections (1 ml/kg body weight) of vehicle (minimum amount of propylene glycol and methane sulfonic acid (1:1) diluted with water) or test compound. Sucrose tests were carried out 24 hours following to last drug treatment.

As for `C[C@@H]1CN(CCCn2c3ccccc3c3ccccc32)C[C@H](C)N1` [rimcazole], in assay [1], the “clinical effect in the treatment of psychosis” value is recorded as “clinically shows effect in the treatment of psychosis”.
As for `Fc1ccc(-n2cc(CCCCN3CCC4(CC3)OCc3ccccc34)c3ccccc32)cc1` [compound of the invention, 1′-[4-[1-(4-fluorophenyl)-1H-indole-3-yl]-1-butyl]-spiro[isobenzofuran-1(3H),4′-piperidine]], in assay [2], the “sigma ligand potency and selectivity” value was “potent and selective sigma ligand, in particular a sigma2 ligand”. Further, the “anxiolytic activity in the black/white exploration test” value in assay [3] is given as “active over a large dose range”. Moreover, the “consumption of sucrose in the control animals” value in assay [4] (non-stressed control rats, daily i.p. for five weeks) is given as “did not significantly affect”. For the same compound, the “sucrose intake in stressed animals versus initial scores” value in assay [4] (stressed rats, 1.0 mg/kg daily i.p.) is “significantly increased from initial scores after three, four and five weeks”. Further, in assay [4] (stressed rats, 1.0 mg/kg daily i.p. for five weeks), the “reversal of chronic mild stress induced deficit in sucrose intake” value is reported as “able to reverse”.
